In ChEMBL document CHEMBL5352493, “Dual inhibitors of ASK1 and PDK1 kinases: Design, synthesis, molecular docking and mechanism studies of N-benzyl pyridine-2-one containing derivatives as anti-fibrotic agents” (Eur J Med Chem, 2023) one finds IC50 data, which are given here for 24 compounds.

A short description of data set [1]: Antiproliferative against rat NRK-49F cells measured after 48 hrs by CCK8 assay. Type of data set: toxicity, cell-based. A general note: Tetrazolium dyes change colour on reduction, which living cells bring about.
The nature of data set [2]: Antiproliferative against HLF1 cells measured after 48 hrs by CCK8 assay. The conditions noted are these: human, HFL1 cells (description prints HLF1). Type of data set: toxicity, cell-based.
A short description of data set [3]: Antiproliferative against rat HSC-T6 cells measured after 48 hrs by CCK8 assay. The format is toxicity, cell-based.
Data set [4] deals with T1, Mitogen-activated protein kinase kinase kinase 5 (Homo sapiens, UniProt Q99683).
T1 sequence (Q99683 whole entry): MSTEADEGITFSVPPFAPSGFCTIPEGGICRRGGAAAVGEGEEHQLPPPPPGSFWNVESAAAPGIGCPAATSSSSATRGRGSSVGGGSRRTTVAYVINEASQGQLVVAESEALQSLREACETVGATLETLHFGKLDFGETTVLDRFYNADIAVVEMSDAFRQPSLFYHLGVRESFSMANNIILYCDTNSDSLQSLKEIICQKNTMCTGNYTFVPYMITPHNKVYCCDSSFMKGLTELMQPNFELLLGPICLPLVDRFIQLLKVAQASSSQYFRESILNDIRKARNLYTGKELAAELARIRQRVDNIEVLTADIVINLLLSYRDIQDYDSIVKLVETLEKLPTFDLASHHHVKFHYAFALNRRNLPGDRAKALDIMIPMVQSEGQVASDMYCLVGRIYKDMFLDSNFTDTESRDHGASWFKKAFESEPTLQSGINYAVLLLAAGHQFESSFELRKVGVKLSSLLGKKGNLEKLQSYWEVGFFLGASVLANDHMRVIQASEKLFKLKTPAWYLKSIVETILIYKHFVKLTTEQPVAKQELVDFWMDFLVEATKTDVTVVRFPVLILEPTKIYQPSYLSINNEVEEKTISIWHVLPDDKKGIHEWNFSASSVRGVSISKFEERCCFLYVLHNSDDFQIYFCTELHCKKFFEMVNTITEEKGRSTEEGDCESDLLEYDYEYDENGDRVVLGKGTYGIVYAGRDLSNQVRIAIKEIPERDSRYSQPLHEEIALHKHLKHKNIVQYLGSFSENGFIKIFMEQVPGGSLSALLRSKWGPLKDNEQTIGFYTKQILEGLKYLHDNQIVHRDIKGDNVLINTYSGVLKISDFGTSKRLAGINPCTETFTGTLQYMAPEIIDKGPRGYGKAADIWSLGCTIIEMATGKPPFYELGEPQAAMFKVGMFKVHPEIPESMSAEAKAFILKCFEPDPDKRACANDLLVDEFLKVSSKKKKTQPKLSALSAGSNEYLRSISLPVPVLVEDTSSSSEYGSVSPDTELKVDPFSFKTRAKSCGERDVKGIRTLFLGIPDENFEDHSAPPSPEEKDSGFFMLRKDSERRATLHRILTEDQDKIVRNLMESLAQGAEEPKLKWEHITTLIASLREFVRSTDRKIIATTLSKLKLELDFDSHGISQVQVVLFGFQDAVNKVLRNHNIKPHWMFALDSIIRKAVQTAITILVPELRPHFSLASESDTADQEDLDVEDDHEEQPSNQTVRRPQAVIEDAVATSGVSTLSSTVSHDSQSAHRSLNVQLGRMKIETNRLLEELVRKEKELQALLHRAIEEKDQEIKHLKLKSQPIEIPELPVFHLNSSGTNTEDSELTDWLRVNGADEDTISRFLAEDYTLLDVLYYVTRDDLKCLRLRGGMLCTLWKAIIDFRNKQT
Kind of data set: Inhibition of human recombinant ASK1 using MBP as substrate preincubated for 1 hr followed by reagent addition incubated for 40 mins by ATP-Glo kinase assay.

Data set [5] is described as follows: Antiproliferative against human BEAS-2B cells measured after 48 hrs by CCK8 assay. The format is toxicity, cell-based.
The target of data set [6] is T1, Mitogen-activated protein kinase kinase kinase 5. Kind of data set: Inhibition of ASK1 (unknown origin).

Each structure is given as a SMILES string.

A word on the IC50: it is the concentration that gives 50% inhibition. `Cn1nc(C(F)(F)F)c2cc(C(=O)Nc3cccc(-c4nncn4C4CCCC4)n3)c(=O)[nH]c21`: the IC50 at 48 h in data set [1], in data set [2] and in data set [3] was greater than 80 µM in each case. In data set [4], the IC50 was 2.18 µM.
Regarding `Cn1nc(C(F)(F)F)c2cc(C(=O)Nc3cccc(-c4nncn4C4CCCC4)n3)c(OCc3ccccc3F)nc21`, the IC50 at 48 h was 11.4 µM in data set [1], 7.99 µM in data set [2] and 14.8 µM in data set [3]. Further, in data set [4], the IC50 amounted to 1.02 µM.
Consider `Cn1nc(C(F)(F)F)c2cc(C(=O)Nc3cccc(-c4nncn4C4CCCC4)c3)c(=O)[nH]c21`, for which the IC50 at 48 h in data set [1], in data set [2] and in data set [3] was greater than 80 µM in each case. Besides, the IC50 in data set [4] was greater than 5 µM.
In the case of `O=C(Nc1cccc(-c2nncn2C2CC2)n1)c1cc(Br)cn(Cc2ccccc2F)c1=O`, the IC50 at 48 h in data set [1], in data set [2] and in data set [3] was greater than 80 µM each time. In data set [4], the IC50 was greater than 5 µM.
In the case of `O=C(Nc1cccc(-c2nncn2C2CC2)c1)c1cc(-n2cnc(C3CC3)c2)ccn1`, the IC50 at 48 h amounted to 34.4 µM in data set [1], 67.9 µM in data set [2], 33.4 µM in data set [3] and 90.2 µM in data set [5].
Regarding `CC(C)n1cnnc1-c1cccc(NC(=O)c2cc3c(C(F)(F)F)nn(C)c3n(C)c2=O)c1`, the IC50 at 48 h in data set [1] was 56.1 µM; in data set [2], greater than 80 µM; in data set [3] it was greater than 80 µM. In addition, in data set [4], the IC50 is greater than 5 µM.
Regarding `O=C(Nc1cccc(-c2nncn2C2CC2)n1)c1cc(-c2cnn(C(F)F)c2)cn(Cc2ccccc2F)c1=O`, the IC50 at 48 h is 58.5 µM in data set [1], greater than 80 µM in data set [2] and greater than 80 µM in data set [3]. For the same compound, the half-maximal inhibitory concentration (IC50) in data set [4] came out at 0.291 µM.
Consider `Cn1nc(C(F)(F)F)c2cc(C(=O)Nc3cccc(-c4nncn4C4CC4)n3)c(OCc3ccccc3F)nc21`, for which the IC50 at 48 h in data set [1] was 55.2 µM; in data set [2], 62.5 µM; in data set [3], greater than 80 µM. The half-inhibitory concentration (IC50) in data set [4] is 1.29 µM.
The matching figures for `O=C(Nc1cccc(-c2nncn2C2CC2)n1)c1cc(-c2cnc(Cl)nc2)cn(Cc2ccccc2F)c1=O`: greater than 80 µM, 29.2 µM, greater than 80 µM and 2.37 µM.
Take `O=C(Nc1cccc(-c2nncn2C2CC2)n1)c1cc(-c2cccc3[nH]ccc23)cn(Cc2ccccc2F)c1=O`: the 50% inhibitory concentration (IC50) at 48 h is 47 µM in data set [1], greater than 80 µM in data set [2] and greater than 80 µM in data set [3]. In addition, the IC50 in data set [4] was greater than 5 µM.
For `Cn1nc(C(F)(F)F)c2cc(C(=O)Nc3cccc(-c4nncn4C4CCCCC4)c3)c(=O)[nH]c21`, the IC50 at 48 h in data set [1], in data set [2] and in data set [3] was greater than 80 µM each time. For the same compound, in data set [4], the IC50 is greater than 5 µM.
As to `Cc1cc(F)c(C(=O)Nc2cccc(-c3nncn3C(C)C)c2)cc1-n1cnc(C2CC2)c1`, in data set [6], the IC50 is 0.0129 µM.
Take `O=C(Nc1cccc(-c2nncn2C2CC2)n1)c1cc(-c2ccc3scnc3c2)cn(Cc2ccccc2F)c1=O`: the IC50 at 48 h in data set [1] was 34.2 µM; in data set [2] it was 68.3 µM; in data set [3], greater than 80 µM. The IC50 in data set [4] is greater than 5 µM.
`O=C(N[C@@H](COc1ccc2[nH]c(=O)[nH]c2c1)c1ccccc1)c1cccn(Cc2ccc(F)c(F)c2)c1=O`: the IC50 at 48 h turned out to be 40.4 µM in data set [1], 64.8 µM in data set [2], 36.2 µM in data set [3] and 96.4 µM in data set [5]. Also, the concentration for half-maximal inhibition (IC50) in data set [4] is greater than 5 µM.
`Cn1nc(C(F)(F)F)c2cc(C(=O)Nc3cccc(-c4nncn4C4CCCCC4)n3)c(=O)[nH]c21`: the IC50 at 48 h in data set [1], in data set [2] and in data set [3] was greater than 80 µM in each case. Also, the IC50 in data set [4] was greater than 5 µM.
In the case of `CC(C)n1cnnc1-c1cccc(NC(=O)c2cc3c(C(F)(F)F)nn(C)c3[nH]c2=O)n1`, the IC50 at 48 h in data set [1], in data set [2] and in data set [3] was greater than 80 µM each time. The half-maximal inhibitory concentration (IC50) in data set [4] is 2.66 µM.
As for `CC(C)n1cnnc1-c1cccc(NC(=O)c2cc3c(C(F)(F)F)nn(C)c3nc2OCc2ccccc2F)n1`, the IC50 at 48 h in data set [1] is greater than 80 µM; in data set [2], 17.9 µM; in data set [3], greater than 80 µM. The IC50 in data set [4] was greater than 5 µM.
Regarding `O=C(Nc1cccc(-c2nncn2C2CC2)n1)c1cc(-c2ccc3[nH]ccc3c2)cn(Cc2ccccc2F)c1=O`, the IC50 at 48 h in data set [1] was 5.75 µM; in data set [2] it was 18.7 µM; in data set [3] it was greater than 80 µM. The IC50 in data set [4] was greater than 5 µM.
The matching figures for `O=C(Nc1cccc(-c2nncn2C2CC2)n1)c1cc(-c2cccnc2)cn(Cc2ccccc2F)c1=O`: greater than 80 µM, 64.2 µM, greater than 80 µM and greater than 5 µM.
The matching figures for `CC(C)n1cnnc1-c1cccc(NC(=O)c2cc3c(C(F)(F)F)nn(C)c3[nH]c2=O)c1`: greater than 80 µM, greater than 80 µM, greater than 80 µM and greater than 5 µM.
The matching figures for `CCn1c(=O)c(C(=O)Nc2cccc(-c3nncn3C3CCCCC3)n2)cc2c(C(F)(F)F)nn(C)c21`: greater than 80 µM, greater than 80 µM, greater than 80 µM and 1.57 µM.
Consider `Cn1nc(C(F)(F)F)c2cc(C(=O)Nc3cccc(-c4nncn4C4CC4)n3)c(=O)[nH]c21`, for which the IC50 at 48 h in data set [1], in data set [2] and in data set [3] was greater than 80 µM in each case. Moreover, the IC50 in data set [4] worked out at 0.489 µM.
As to `O=C(Nc1cccc(-c2nncn2C2CC2)n1)c1cc(-c2cnn(C3CCC3)c2)cn(Cc2ccccc2F)c1=O`, the IC50 at 48 h is greater than 80 µM in data set [1], 10.7 µM in data set [2] and greater than 80 µM in data set [3]. The IC50 in data set [4] came out at 0.289 µM.
Take `CCCCn1cnnc1-c1cccc(NC(=O)c2cc3c(C(F)(F)F)nn(C)c3[nH]c2=O)n1`: the concentration for half-maximal inhibition (IC50) at 48 h in data set [1], in data set [2] and in data set [3] was greater than 80 µM throughout. In addition, the IC50 in data set [4] stood at 0.978 µM.
